“Also recorded” adds a separate entry of the source.
Key:
TP53 knockout cells = assay: CellTiter-Glo cell viability assay, TP53 knockout cells; type: cell-based
Protocol: Lentivirus was produced by transfecting HEK-293T cells with the pLentiV2 vector (Addgene plasmid 52961) and the packaging plasmids pCMV8.9 and pCMV-VSVG according to the FuGENER 6 (Roche) protocol. For lentiviral transduction, Ewing sarcoma cells were incubated with 2 ml of virus and 8 μg/ml of polybrene (Sigma-Aldrich). Cells were selected in puromycin (Sigma-Aldrich) 48 h after infection for single knockout experiments. For dual knockout experiments, PPM1D, USP7, and MDM4 sgRNA sequences were cloned into a LentiV2 vector with a blasticidin selection marker (Addgene plasmid 83480).
d. sgRNA Sequences sgRNAs were designed using the Broad Institute's sgRNA designer tool. The following sequences were used as control or to target the respective genes: control sgRNA, 5′-[…]-3′ (SEQ ID NO: 125); sgMDM2 2: 5′-[…]-3′ (SEQ ID NO: 126); sgMDM2 5: 5′-[…]-3′ (SEQ ID NO: 127); sgMDM4 4: 5′-[…]-3′ (SEQ ID NO: 128); sgMDM4 6: 5′-[…]-3′ (SEQ ID NO: 129); sgUSP7 1: 5′-[…]-3′ (SEQ ID NO: 130); sgUSP7 2: 5′-ACCATACCCAAATTATTC CG-3′ (SEQ ID NO: 131); sgPPMID 1: 5′-[…]-3′ (SEQ ID NO: 132); sgPPMID 2: 5′-[…]-3′ (SEQ ID NO: 133); sgTP53 1: 5′-[…]-3′ (SEQ ID NO: 134); sgTP53 2: 5′-[…]-3′ (SEQ ID NO: 135); sgTP53 4: 5′-[…]-3′ (SEQ ID NO: 136); and sgTP53 5: 5′-[…]-3′ (SEQ ID NO: 137). e. Protein Extraction and Immunoblotting
(§1) Cell viability was assessed using the CellTiter-Glo® Luminescent Cell Viability Assay (Promega). Viability assays were performed after Ewing sarcoma cell lines were infected with sgRNAs targeting TP53, MDM2, MDM4, PPM1D, or USP7 or treated with ATSP-7041, ATSP-7342, GSK2830371, P5091, XL-188, or vehicle control.

[1] = test system: TC32, TC138, and CHLA258 cells; assay: Drug synergy analysis, Chou-Talalay combination index for Loewe additivity; type: cell-based; conditions: CI<1 synergistic; for combination index, ATSP-7041 combined with P5091: CI>1 antagonistic
Protocol: as §1
k. Drug Synergy Analysis Chou-Talalay Combination Index for Loewe Additivity
Loewe Additivity is a dose-effect approach that estimates the effect of combining two drugs based on the concentration of each individual drug that produces the same quantitative effect (Goldoni and Johansson (2007) Toxicol. In Vitro 21:759-769). […] They introduced the combination index (CI) scores to estimate the interaction between the two drugs. If CI<1, the drugs have a synergistic effect, and if CI>1, the drugs have an antagonistic effect. CI=1 means the drugs have an additive effect.

PDX tumor tissues = assay: Pharmacodynamics study in PDX tumor tissue (Western blot, quantitative PCR); type: in vivo, mice; conditions: PDX HSJD-ES-002, three doses 30 mg/kg q.o.d.
Protocol: (§2) Whole-cell lysates were extracted in cell lysis buffer (Cell Signaling) supplemented with EDTA-free protease inhibitors and PhosSTOP™ phosphatase inhibitors (Roche). Western immunoblotting was performed using standard techniques. Primary antibodies used included anti-MDM2 (ab178938; Abcam), anti-MDM2 (86934; Cell Signaling), anti-MDM4 (A300-287A; Bethyl Laboratories), anti-p53 (2527S; Cell Signaling), anti-p21 (2946S; Cell Signaling), anti-Vinculin (18058; Abcam), anti-Wip1 (A300-664A; Bethyl Laboratories), anti-pSer15-p53 (9284; Cell Signaling), anti-USP7 (A300-033A; Bethyl Laboratories), and anti-Tubulin (cp06; CalBiochem).
(§3) RNA was extracted from cells with the RNeasy® kit and on-column DNA digestion (Qiagen). cDNA was prepared using M-MLV reverse transcription (ThermoFisher Scientific). TaqMan™ Gene Expression Master Mix (Applied Biosystems) was used per the manufacturer's protocol. TaqMan™ probes included RPL13A (Hs04194366_g1; ThermoFisher Scientific), CDKNIA (Hs00355782_m1; Thermo Fisher Scientific), and MDM2 (Hs01066930_m1; ThermoFisher Scientific). Data were collected in triplicate and analyzed using the ΔΔCT method.
(§4) For pharmacodynamics studies, tumor xenografts were established in six nude female mice by implanting three million TC32 cells or PDX tumor fragments into the right flank. Animals were randomized to either ATSP-7041 (n=3) or vehicle treatment (n=3). […]

[2] = test system: TC32 xenograft tumor tissues; assay: Pharmacodynamics study in TC32 xenograft tumor tissue (Western blot, quantitative PCR); type: in vivo, mice; conditions: three doses 30 mg/kg IV q.o.d., 8 h after last dose
Protocol: as §2, §3, §4

[3] = test system: TP53 wild-type Ewing sarcoma cell lines; assay: CellTiter-Glo cell viability assay, TP53 wild-type Ewing sarcoma cell lines; type: cell-based; conditions: TP53 wild-type Ewing sarcoma cell lines, treated for 3 d, micromolar concentrations
Protocol: as §1

[4] = TC32, TC138, CHLA258, 3 d, CI=1 additive

For `CC(=O)N[C@@H](CC(C)C)C(=O)N[C@H](C(=O)N[C@@H](Cc1ccccc1)C(=O)N[C@]1(C)CCCCCCC=CCCC[C@@](C)(C(=O)N[C@@H](CO)C(=O)N[C@@H](C)C(=O)N[C@@H](C)C(N)=O)NC(=O)[C@H](CC2CCC2)NC(=O)[C@H](CCC(N)=O)NC(=O)[C@H](C)NC(=O)[C@H](Cc2c[nH]c3ccccc23)NC(=O)[C@H](Cc2ccc(O)cc2)NC(=O)[C@H](CCC(=O)O)NC1=O)[C@@H](C)O` [ATSP-7041, Ac-Leu17-Thr-Phe-cyclo(R8-Glu-Tyr-Trp-Ala-Gln-Cba-S5)-Ser-Ala-Ala30-NH2], the “effect of TP53 knockout on the cytotoxic effect of the compound (viability)” value (TP53 knockout cells) was “fully rescues the cytotoxic effect”, the “combination index, ATSP-7041 combined with P5091” value ([1]; CHLA258, 5 d, CI=1 additive) was “additivity” and the “combination index, ATSP-7041 combined with doxorubicin” value [1, 4] was “additivity or synergy”. The “combination index, ATSP-7041 combined with etoposide” value [1, 4] was “additivity or synergy”, the “combination index, ATSP-7041 combined with vincristine” value [1, 4] was “additivity or synergy” and the “combination index, ATSP-7041 combined with GSK2830371” value ([1]; TC32, TC138, and CHLA258, 3 d) was “strong synergy”. The “combination index, ATSP-7041 combined with P5091” value ([1]; TC32 and TC138, 5 d, CI=1 additive) was “synergy”, the “p53 pathway protein levels in tumor tissue” value (PDX tumor tissues; 8 h after last dose) was “increase of MDM2, p53, and p21 protein levels; also recorded: increased intratumoral p53 and p21 protein levels” and the “MDM2 and p21 mRNA levels in tumor tissue” value (PDX tumor tissues; quantitative PCR) was “increase of MDM2 mRNA levels; also recorded: increase of p21 mRNA levels; also recorded: increased MDM2 and p21 mRNA levels”. For the same compound, the “MDM2, p53, and p21 protein levels in tumor tissue” value [2] was “increase of MDM2, p53, and p21 protein levels; also recorded: increase in MDM2, p53, and p21 protein levels”, the “MDM2 and p21 mRNA levels in tumor tissue” value ([2]; quantitative PCR) was “increase of MDM2 mRNA levels; also recorded: increase of p21 mRNA levels” and the “cell viability, normalized to vehicle control” value [3] was “selectively reduced the viability”.

Reference: patent publication US12480163B2, “Compositions and methods for identification assessment, prevention, and treatment of Ewing sarcoma using TP53 dependency biomarkers and modulators” (Dana-Farber Cancer Institute, Inc., priority 2018, dated 2025)
